Test results from patent publication US7323490B2, “Pyrrole compounds and uses thereof” (Ambit Biosciences Corporation, priority 2003, dated 2008).
Several values for one entry are separate records, joined by “and”; a condition that tells them apart may be missing. Equal values may be shown once.

Experiments:
[1] = test system: focal cerebral infarcts (MCAo); experiment: Infarct volume measurement (H&E), Tamura MCAo model; assay type: in vivo, rat; conditions: day 7
Description: Behavioral assessment as well as infarct volume of compound-treated animals in comparison to control (vehicle) volume animals was used for evaluating compound efficacy over a 7 day period.
Surgical Preparation. Middle Cerebral Artery Occlusion (MCAo), Tamura Model. Focal cerebral infarcts were made by permanent occlusion of the proximal right middle cerebral artery using a modification of the method of Tamura et al. Male Sprague-Dawley rats (300-350 g) were anesthetized with 2% isoflourane in 50% Air/50% O2, and maintained with 1-1.5% isoflourane. The temporalis muscle was bisected and reflected through an incision made midway between the eye and the eardrum canal. The proximal MCA was exposed through a subtemporal craniectomy without removing the zygomatic arch and without transecting the facial nerve. […] Body temperature was maintained at 38° C.±1 throughout the entire procedure. Animals were euthanatized at various time periods after MCA occlusion and the brains are removed for histological analysis.
Morphometric Analysis—Brain Perfusion. Seven days after the induction of focal ischemia, rats were deeply anesthetized with a ketamine, and xylazine cocktail. The animals were then perfused transcardially with normal saline (with heparin 2 unit/ml) followed by 4% paraformaldehyde for infarct volume measurement (H&E staining). Brains were removed and stored in 10% formalin to be sectioned and stained with Hematoxylin and Eosin.
Infarct Volume Measurement. Using the Image Pro-Plus imaging system, a total of 7 images per brain of the posterior side of each slice were analyzed through digital analysis. The total direct infarct volume was calculated for the left hemisphere using the equation below. Digitizing and computation was done under blinded conditions.
The total infarct volumes are calculated for each animal and subsequent group means were determined as volume of area (mm^3). To account for tissue shrinkage and possible edema the indirect method of infarct volume was calculated using the formula: Total Contralateral Hemisphere Volume−Total Infarcted Hemisphere Volume (mm^3)
Experimental Groups and Compound Administration. A total of 80 animals underwent MCAo using subcutaneous administration of all test articles, according to the experimental design illustrated in Table 16. […] The time schedules for administration of all treated groups (10 animals/group) was divided as follows:
All animals were treated with the compound(s)/vehicle(s) as a blinded random investigation. The dose and route of administration is given below in Table 16. Forty animals used in the first group of the study (group a.) Cerebral blood flow measurement was performed according to the protocol previously discussed on days 0, 1 and 5 with respect to MCAo.

focal cerebral ischemia = experiment: Rat MCAO model, time schedules of administration (Example 11); assay type: in vivo; conditions: 25 hrs post, 48 h
Procedure: The compounds were tested on a standardized rodent focal cerebral ischemia model produced by permanent occlusion of the right middle cerebral artery (MCA) plus one hour of tandem carotid artery occlusion according to Chen et al. A total of 96 animals underwent MCAo using subcutaneous administration of all test articles, according to the experimental design illustrated in Table 5 below. Three compounds at one predetermined dose were compared to vehicle and assigned to three different time schedules of administration relative to the time of MCAo. […] The time schedules for administration of all treated groups were divided as follows:
A second group of eighteen animals were used to test compound A (782236) using the treatment schedule, shown (a, b & c) above via intravenous (I.V.) administration. Groups of n=5 animals per treatment time period with compound A and 3 animals per control group via tail vein.
Animal Preparation and Middle Cerebral Artery Occlusion. Male, adult, Sprague-Dawley rats (Charles River), weighing 300-400 grams, were used for the study. All animals were acclimated at least for five days before entering the study. Animals were housed in a standard animal facility and fed with commercial rodent chow ad libitum. All animals were anesthetized via intramuscular injection (4 mL/kg) of “cocktail” containing ketamine (25 mg/mL), xylazine (1.3 mg/mL) and acepromazine (0.33 mg/mL). Both carotid arteries were separated with great caution to minimize the vagal nerve stimulation. The right proximal MCA trunk was exposed through a subtemporal craniectomy without transecting the facial nerve. […] Immediately following MCA occlusion, both of the common carotid arteries were occluded for 1 hour using surgical aneurysm micro-clips (ROBOZ INC). Animals were put into temperature regulated recovery chamber for 1 hour before the clips were removed from the common carotid arteries. Body temperature was maintained at 37±0.5° C. during the surgery using a heating blanket connected to a temperature controller.
Experimental Groups and Compound Administration. A total of 96 animals underwent MCAo using subcutaneous administration of all test articles, according to the experimental design illustrated in Table 5 below. Three compounds at one predetermined dose were compared to vehicle and assigned to three different time schedules of administration relative to the time of MCAo. […] The time schedules for administration of all treated groups were divided as follows:
A second group of eighteen animals were used to test compound A (782236) using the treatment schedule, shown (a, b & c) above via I.V. administration. Groups of n=5 animals per treatment time period with compound A and 3 animals per control group via tail vein.
Infarct Measurement. Forty-eight hours following MCAo, animals were euthanized with inhalation of CO2. Brains were removed and chilled in ice saline for 10 min. The brains were put in a metal rodent brain slicer. Each rat brain was cut coronally into 7 sections, with each section being 2 mm thick. The brain sections were immersed in 2% TTC solution for 30 min at 37° C. The areas of cerebral infarcts were determined on seven slices, using a computer-interfaced imaging system, Image-Pro® Plus, Version 4.4 for Windows (Media Cybernetics, MD). Infarct areas were then summed among slices and multiplied by slice thickness to give the total infarct volume.
Statistics. All data are expressed as mean±SEM. In Section A, infarct volume was analyzed using Student t Test. A p value of ≦0.05 was considered a statistically significant difference. All statistical analyses were performed with the software package JMP version 4.0 (SAS Institute Inc., Cary, N.C.).

[2] = administered six hours after MCAo
[3] = administered six hours after MCAo, listed as A
[4] = administered three hours after MCAo
[5] = administered three hours after MCAo, listed as A
[6] = SC, schedule a: 2 hrs pre, 3 hrs post, doses per Table 5 (782236 1/0.5/0.5, others 10/5/5 mg/kg)
[7] = SC, schedule b: 1 hr post, 3 hrs post, doses per Table 5
[8] = SC, schedule c: 3 hrs post, 6 hrs post, doses per Table 5
[9] = administered six hours after MCAo, listed as C
[10] = administered three hours after MCAo, listed as C
[11] = administered six hours after MCAo, listed as B
[12] = administered three hours after MCAo, listed as B

Structure (SMILES) | Corrected Infarct Volume, Average [1, 2] | Percent Infarct Volume, Average [1, 2] | Corrected Infarct Volume, Average [1, 4] | Percent Infarct Volume, Average [1, 4] | infarction volume (focal cerebral ischemia; [6]) | infarction volume (focal cerebral ischemia; [7]) | infarction volume (focal cerebral ischemia; [8]) | also measured
CC(C)c1c(C(=O)Nc2ccccc2)c(-c2ccccc2)c(-c2ccc(F)cc2)n1CC(O)C(O)C(O)C(O)CO (stereo not drawn) [Compound 782236] | 239.27 mm^3 | 26.69% | 212.59 mm^3 | 23.53% | 138.6±35.13 mm^3 | 171.04±33.04 mm^3 | 155.53±29.66 mm^3 | Corrected Infarct Volume, individual animals [1, 3]: 227.2 mm^3 and 166.6 mm^3 and 234.6 mm^3 and 269.8 mm^3 and 249 mm^3 and 215.8 mm^3 and 229 mm^3 and 213.3 mm^3 and 271.4 mm^3 and 316 mm^3; Percent Infarct Volume, individual animals [1, 3]: 25.6% and 31.5% and 24.6% and 28.8% and 28.1% and 28.9% and 24.8% and 23.5% and 25.3% and 25.8%; Corrected Infarct Volume, individual animals [1, 5]: 210.9 mm^3 and 272.5 mm^3 and 275.6 mm^3 and 163.8 mm^3 and 249 mm^3 and 229.2 mm^3 and 127.9 mm^3 and 222.3 mm^3 and 235 mm^3 and 139.8 mm^3; Percent Infarct Volume, individual animals [1, 5]: 25.1% and 29% and 23.7% and 15.8% and 28.1% and 25.9% and 15.9% and 27.5% and 25.4% and 18.9%; infarction volume (focal cerebral ischemia; IV, schedule a: 2 hrs pre, 3 hrs post, 1/0.5/0.5 mg/kg): 186.8±9.2 mm^3; infarction volume (focal cerebral ischemia; IV, schedule b: 1 hr post, 3 hrs post): 122.8±17.9 mm^3; infarction volume (focal cerebral ischemia; IV, schedule c: 3 hrs post, 6 hrs post): 73.8±18.1 mm^3
CC(C)c1c(C(=O)Nc2ccccc2)c(-c2ccccc2)c(-c2ccc(F)cc2)n1CC[C@@H](O)C[C@@H](O)CC(=O)O [atorvastatin, reference compound] | 271.2 mm^3 | 24.56% | 207.96 mm^3 | 21% | 80.35±30.41 mm^3 | 121.52±22.58 mm^3 | 127.16±25.77 mm^3 | Corrected Infarct Volume, individual animals [1, 9]: 138.8 mm^3 and 267.1 mm^3 and 232.3 mm^3 and 333 mm^3 and 214.3 mm^3 and 291.6 mm^3 and 338.3 mm^3 and 354.3 mm^3; Percent Infarct Volume, individual animals [1, 9]: 12.7% and 21.6% and 24.2% and 31% and 25.4% and 29.4% and 25.7% and 26.6%; Corrected Infarct Volume, individual animals [1, 10]: 208 mm^3 and 303.3 mm^3 and 262.3 mm^3 and 184.8 mm^3 and 243.8 mm^3 and 124 mm^3 and 162.8 mm^3 and 164.5 mm^3 and 218.2 mm^3; Percent Infarct Volume, individual animals [1, 10]: 18.35% and 28.2% and 31% and 16.2101% and 25.43% and 12.82% and 17.39% and 16.81% and 22.81%
CC(C)c1[nH]c(-c2ccc(F)cc2)c(-c2ccccc2)c1C(=O)Nc1ccccc1 [Compound 781430] | 283.4 mm^3 | 26.92% | 213.77 mm^3 | 22.29% | 78.89±28.46 mm^3 | 96.51±31.62 mm^3 | 121.39±22.53 mm^3 | Corrected Infarct Volume, individual animals [1, 11]: 375.7 mm^3 and 204.5 mm^3 and 353.2 mm^3 and 262.2 mm^3 and 196.6 mm^3 and 352.4 mm^3 and 289.9 mm^3 and 195.4 mm^3 and 327.7 mm^3 and 276.5 mm^3; Percent Infarct Volume, individual animals [1, 11]: 31.4% and 21.7% and 26.2% and 33.9% and 15.6% and 29.1% and 28.8% and 25.4% and 35.3% and 21.8%; Corrected Infarct Volume, individual animals [1, 12]: 200.1 mm^3 and 231.7 mm^3 and 217.7 mm^3 and 173 mm^3 and 180.5 mm^3 and 224.1 mm^3 and 208.1 mm^3 and 233.4 mm^3 and 255.3 mm^3; Percent Infarct Volume, individual animals [1, 12]: 19.74% and 21.5679% and 24.3% and 20.62% and 19.71% and 23.99% and 22.56% and 24.24% and 23.9%
